From US20240150282A1, “NOVEL CRYSTALLINE COMPOUND OF SIPONIMOD HEMIFUMARATE” (OLON S.P.A., priority 2021, published 2024)

Key:
[1] = Stability of the crystalline form during isolation and drying; format: physicochemical
Text: According to another of its aspects, subject-matter of the invention is a process for the preparation of the NP01 Form of Siponimod Hemifumarate, comprising carrying out the steps (a) and (b) stated above for the preparation of the NP04 Form.

[2] = Stability assays of the NP04 Form (storage, humidity, shredding, compression); format: physicochemical
Protocol: Stability assays of the NP04 Form
Aliquots of the compound obtained from Example 1 were subjected to the following assays: • closed in a sealed bottle for 8 days • at 25° C. with 100% relative humidity for 7 days • at 25° C. with 60% relative humidity for 7 days • at 60° C. with 75% relative humidity for 3 days • shredding treatment • Compression test under 1, 2 and 3 tons

| stability of the crystalline form [1] | solid form stability (form recovered after treatment) ([2]; 25° C. with 60% relative humidity for 7 days) | solid form stability (form recovered after treatment) ([2]; 25° C. with 100% relative humidity for 7 days) | solid form stability (form recovered after treatment) ([2]; 60° C. with 75% relative humidity for 3 days) | solid form stability (form recovered after treatment) ([2]; closed in a sealed bottle for 8 days) | solid form stability (form recovered after treatment) ([2]; compression test under 1, 2 and 3 tons) | solid form stability (form recovered after treatment) ([2]; shredding treatment) | SMILES |
| --- | --- | --- | --- | --- | --- | --- | --- |
| unstable and converts to the NP04 Form |  |  |  |  |  |  | CCc1cc(/C(C)=N/OCc2ccc(C3CCCCC3)c(C(F)(F)F)c2)ccc1CN1CC(C(=O)O)C1 [NP01 Form, Siponimod Hemifumarate] |
|  | stable | stable | stable | stable | stable | stable | CCc1cc(/C(C)=N/OCc2ccc(C3CCCCC3)c(C(F)(F)F)c2)ccc1CN1CC(C(=O)O)C1 [NP04 Form, Siponimod Hemifumarate] |
